# Laboratory results as given in patent US10633675B2, “Microbial engineering for the production of chemical and pharmaceutical products from the isoprenoid pathway” (priority 2009, dated 2020).
# Experiments:
# [1] = tested on: taxadiene synthesis by strain 26; assay: Effect of externally-introduced indole on taxadiene production; format: cell-based, E. coli
# Excerpt: (§1) FIGS. 15A-15C. Impact of metabolite byproduct Indole accumulation on taxadiene production and growth. […] Strains 26 to 28 and 30 to 32, all with chromosomally integrated upstream pathway expression, were chosen for consistent comparison. The two sets of strains differ only in the expression of the downstream pathway with the second set (30 to 32) having twice the level of expression of the first. In strains 26 to 28 and 30 to 32, upstream expression increased by changing the promoters from Trc, to T5 and T7, respectively. […] The fold improvements are relative to strain 25 and 29, respectively, for the two sets. […] Different concentrations of indole were introduced into cultures of cells cultured in minimal media with 0.5% yeast extract. […] Data are mean+/−SD for three replicates. Strains devoid of the downstream pathway and with different strengths of the upstream pathway (1, 2, 6, 21, 40 and 100) were selected.
# [2] = tested on: engineered strains of E. coli; assay: Effect of externally-introduced indole on cell growth; format: cell-based
# Excerpt: as §1
compound,measurement,setting,value
c1ccc2[nH]ccc2c1 [indole],exogenous indole level at which taxadiene synthesis is severely inhibited,[1]; exogenous indole (FIG. 15B),> 100 mg/L
same,effect on taxadiene production,"[1]; indole concentration increased from 50 mg/L to 100 mg/L, minimal media with 0.5% yeast extract (FIG. 15B)",significantly reduced
same,effect on cell growth,"[2]; further increasing the indole concentration, level of inhibition very strain dependent (FIG. 15C)",inhibited cell growth
same,effect on cell growth of strain 26 compared with strains devoid of the downstream pathway,"[2]; strain 26, the high taxadiene producer (FIG. 15C)",strongest inhibition
